Reference: US12491514B2, “Device, system, and method for trapping tissue samples” (University of Washington, priority 2019, dated 2025)

What was measured:
[1] = tested on: U87 glioma cuboids; assay: Drug treatment of U87 glioma cuboids on the microfluidic device, SYTOX green/Hoechst cell death staining; type: cell-based; conditions: for cell death response, mean fluorescence ratio SG dead nuclear to Hoechst pan-nuclear: 2 days (day 1 to day 3), U87 cuboids in device
Protocol: U87 cuboids were cultured in collagen hydrogel. We prepared 80% collagen (Corning rat tail collagen type 1, 354236, 3-4 mg/mL), 10% 10×PBS, and 10% serum-free medium. We then used filtered-sterilized 1M NaOH to neutralize the pH to ˜7.2. For culture in 6 well plates, cuboids were cultured in 1 mL collagen on top of a 0.4 μm filter Transwell PFTE membrane insert (PICMORG50, Millipore) with 1.3 mL culture medium placed below. Cuboids were cultured both with and without an additional layer of pre-gelled 1 mL collagen below with similar histology and staining observed, apart from a relatively flatter shape often seen without the extra collagen layer. The culture medium contained Neurobas al-A medium (Invitrogen) with 25% heat-inactivated horse serum (Sigma), Glutamax (Invitrogen), 2× penicillin/streptomycin (Invitrogen), and growth factors (EGF 20 ng/mL and FGF 20 ng/mL, Preprotech or Invitrogen). Cisplatin (3 mM stock in dH2O, MedChem Express) was diluted in cell culture medium for the drug treatment experiment. Liver cuboids were cultured in 1 mL of collagen hydrogel on a Millipore insert with constant shaking. Culture medium was William's Medium (with L-glutamine, Invitrogen, Scotland) supplemented with 25 mM glucose (Sigma-Aldrich, USA), 30 nM insulin (ITS+premix, Zen-Bio, Inc., USA), 1 nM EGF (Preprotech), 5% Pen Strep (Sigma-Aldrich, USA), 100 nM glucagon (Sigma-Aldrich, USA). Live U87 glioma cuboids were stained for 1 hour, 37° C., with the following dyes (individually or in combination) diluted in culture medium: Cell Tracker Green CMFDA (Invitrogen, 10 μM), Cell Tracker Orange CMRA (Invitrogen, 10 μM), Hoechst (H; Invitrogen, 16 μM), and/or SYTOX green (SG; Invitrogen, 0.01 μM). […] Mean SG fluorescence was normalized to the average value of untreated cuboids. […] As a straightforward simple measure of cell viability, we measured the mean fluorescence ratio in epifluorescence images of SG dead nuclear fluorescence to Hoechst pan-nuclear fluorescence (FIG. 12B). […]

[2] = tested on: U87 glioma slices; assay: Previous experiments with U87 glioma slices on and off a microfluidic device, SG/H live viability staining; type: cell-based; conditions: 30 and 100 μM

SMILES: N.N.[Cl][Pt][Cl] [cisplatin]
- cell death response, mean fluorescence ratio SG dead nuclear to Hoechst pan-nuclear ([1]; 30 μM): statistically significant response
- mean increase of SG (SYTOX green dead stain) fluorescence normalized to the mean ([1]; 100 μM, 2-day maximal drug treatment, used as threshold for death): 1.4
- cell death response, mean fluorescence ratio SG dead nuclear to Hoechst pan-nuclear ([1]; 100 μM): showing a trend
- response by SG/H live viability staining [2]: cell death
